Test results taken from patent publication US8841281B2, “Transition metal complexes of amino acids and related ligands and their use as catalysts, anti-microbials, and anti-cancer agents” (Virginia Tech Intellectual Properties, Inc., priority 2011, dated 2014).
Where two headings read alike, the source gives them in different places.

What was measured:
S. Aur = assay: Activity against S. Aur (Table VIIIB); type: cell-based, Staphylococcus aureus
MRSA = assay: Activity against MRSA strains (Table VIIIB, compounds used alone); type: cell-based, Staphylococcus aureus; details: for activity against MRSA when used alone: ligand compound used alone, not complexed
E. coli = assay: MIC of complexes against E. coli; type: cell-based
M. chelonae = assay: 96 well plate dilution test, MIC against M. chelonae; type: cell-based
[1] = test system: methicillin-resistant Staphylococcus aureus (MRSA); assay: 96 well plate dilution test, MIC against MRSA; type: cell-based; details: Pd(AA)2 complexes against MRSA
Procedure: Biological activities of complexes of Formula 1 were tested against various strains of bacteria using the following general procedure. It is noted that complexes of Formula 2 and Formula 3 were tested using the same procedure. Generally, 96 well plate dilution tests were performed using a 96-well plate consisting of 8 rows and 12 columns. Each well is charged with the test organism in the appropriate growth medium. The test complex is also dissolved in the test medium and the first well is charged with sufficient complex solution to provide a concentration of 250 ug/mL. […] Well 12 is used as a control with no test complex. The plates are incubated for 48 hrs in the case of bacteria and 4-5 days in the case of mycobacteria. The wells are read using a spectrophotometer measuring turbidity at 540 nm. A high optical density indicates significant cell growth while a low optical density indicates significant inhibition. All results reported are normalized in terms of inhibition of cell growth and reported as MICs.
Biological activity is expressed in terms of the Minimum Inhibitory Concentration (MIC) in units of micrograms per mL. The MIC is the lowest concentration of the complex at which full inhibition of organism growth is observed.
Octahedral iridium(III) complexes of Formula 2 were tested against various strains of bacteria using the procedure described above for Formula 1. Biological activity is expressed in terms of the MIC in units of micrograms per mL.

M. smegmatis = assay: 96 well plate dilution test, MIC against M. smegmatis; type: cell-based
M. abscessus = assay: 96 well plate dilution test, MIC against M. abscessus; type: cell-based
[2] = test system: Mycobacterium smegmatis strain mc^2155; type: cell-based
[3] = test system: Mycobacterium bovis strain BCG; type: cell-based
[4] = test system: Mycobacterium marinum ATCC 927
[5] = test system: Mycobacterium abscessus strain AAy-P-1
[6] = test system: Mycobacterium chelonae strain EO-P-1
[7] = test system: Mycobacterium intracellulare
[8] = test system: Mycobacterium avium strain A5
[9] = test system: mycobacteria, Staphylococcus aureus and methicillin-resistant S. aureus (MRSA); details: among Ir, Ru, Rh L-α-amino acid complexes
[10] = Ruthenium piano stool complexes

Compound	Minimal Inhibitory Concentration (MIC) M. smegmatis [2] [µg/mL]	Minimal Inhibitory Concentration (MIC) M. marinum [4] [µg/mL]	Minimal Inhibitory Concentration (MIC) M. abscessus [5] [µg/mL]	Minimal Inhibitory Concentration (MIC) M. chelonae [6] [µg/mL]	Minimal Inhibitory Concentration (MIC) M. intracellulare [7] [µg/mL]	Minimal Inhibitory Concentration (MIC) M. avium [8] [µg/mL]	other results
CN(C)CCN [4 (N,N-dimethyl ethylenediamine)]							Activity (MIC) S. Aur (S. Aur): >250 µg/mL; Activity (MIC) MRSA PI-1 (MRSA; strain PI-1): >250 µg/mL; Activity (MIC) MRSA PI-34380 (MRSA; strain PI-34380): >250 µg/mL; Activity (MIC) MRSA PI-34864 (MRSA; strain PI-34864): >250 µg/mL; Activity (MIC) MRSA PI-36361 (MRSA; strain PI-36361): >250 µg/mL; Activity (MIC) MRSA PI-43300 (MRSA; strain PI-43300): >250 µg/mL; Activity (MIC) MRSA PI-52300 (MRSA; strain PI-52300): >250 µg/mL; Activity (MIC) MRSA PI-53016 (MRSA; strain PI-53016): >250 µg/mL
C1=CCCC=CCC1.C[P](C)(C)[Ir+]([P](C)(C)C)[P](C)(C)C.[Cl-] [Ir(COD)(PMe3)3]							MIC ug/mL E. coli (E. coli): 60 µg/mL
Cc1c(C)c(C)[c-](C)c1C.NC(Cc1ccc(O)cc1)C(=O)[O-].[Cl-].[Ir+3] [Ir(Cp*)L-Tyr]							M. chelonae MIC (M. chelonae; Iridium piano stool complexes): Inactive
CN(C)CCN [N,N-dimethylethylenediamine, reference compound]							activity against MRSA when used alone (MRSA): not active
CNCCN [N-methylethylenediamine, reference compound]							activity against MRSA when used alone (MRSA): not active
CC(N)C(=O)[O-].CC(N)C(=O)[O-].[Pd+2] (stereo not drawn) [Pd(Ala)2]							MIC [1]: inactive
O=C([O][Pd][O]C(=O)C1CCCN1)C1CCCN1 (stereo not drawn) [Pd(Pro)2, bis-prolinato palladium(II)]							MIC [1]: 7.5 µg/mL
NC(CO)C(=O)[O-].NC(CO)C(=O)[O-].[Pd+2] (stereo not drawn) [Pd(Ser)2]							MIC [1]: inactive
CC(C)C(N)C(=O)[O-].Cc1ccc(C(C)C)cc1.[Cl-].[Ru+2] [Ru(p-cymene)Val]							M. chelonae MIC (M. chelonae; [10]): 7.5 µg/mL; M. smegmatis MIC (M. smegmatis; [10]): 7.5 µg/mL; M. abscessus MIC (M. abscessus; [10]): 7.5 µg/mL
CC(N)C(=O)[O][Ru][Cl].Cc1ccc(C(C)C)cc1 [Ru(p-cymene)ala]							M. chelonae MIC (M. chelonae; [10]): 7.5 µg/mL; M. smegmatis MIC (M. smegmatis; [10]): 7.5 µg/mL; M. abscessus MIC (M. abscessus; [10]): 7.5 µg/mL
CC(C)CC(N)C(=O)[O-].Cc1ccc(C(C)C)cc1.[Cl-].[Ru+2] [Ru(p-cymene)leu]							M. chelonae MIC (M. chelonae; [10]): 7.5 µg/mL; M. smegmatis MIC (M. smegmatis; [10]): 3.9 µg/mL; M. abscessus MIC (M. abscessus; [10]): 7.5 µg/mL
CC[C@@H](CO)NCCN[C@@H](CC)CO [ethambutol, reference compound]							activity against MRSA when used alone (MRSA): not active
NCCN [ethylenediamine, reference compound]							activity against MRSA when used alone (MRSA): not active
Cp*IrCl (D-Proline) [1 (D-pro)]	>250	>250	>250	>250	>250	>250	Minimal Inhibitory Concentration (MIC) M. bovis [3]: >250 µg/mL
Cp*IrCl (Glycine) [1 (L-gly)]	61	>250	125	125	>250	>250	
Cp*IrCl (L-Alanine) [1 (L-ala)]	15	>250	31	61	61	>250	M. chelonae MIC (M. chelonae): 7.5 µg/mL; Minimal Inhibitory Concentration (MIC) M. bovis [3]: 31 µg/mL; M. smegmatis MIC (M. smegmatis; Iridium piano stool complexes): 7.5 µg/mL; M. abscessus MIC (M. abscessus; Iridium piano stool complexes): 7.5 µg/mL
Cp*IrCl (L-Leucine) [1 (L-leu)]	32	>250	32	32	32	>250	M. chelonae MIC (M. chelonae): 3.9 µg/mL; M. smegmatis MIC (M. smegmatis; Iridium piano stool complexes): 3.9 µg/mL
Cp*IrCl (L-Phenylalanine) [1 (L-phe)]							relative anti-mycobacterial / antibiotic activity [9]: highest activity
Cp*IrCl (L-Phenylglycine) [1 (L-phengly)]	5	>250	31	10	15	>250	Minimal Inhibitory Concentration (MIC) M. bovis [3]: 10 µg/mL; relative anti-mycobacterial / antibiotic activity [9]: highest activity
Cp*IrCl (L-Proline) [1 (L-pro)]	10	>250	15	15	61	125	M. chelonae MIC (M. chelonae): 7.5 µg/mL; Minimal Inhibitory Concentration (MIC) M. bovis [3]: 15 µg/mL; M. smegmatis MIC (M. smegmatis; Iridium piano stool complexes): 3.9 µg/mL; relative anti-mycobacterial / antibiotic activity [9]: highest activity; M. abscessus MIC (M. abscessus; Iridium piano stool complexes): 3.9 µg/mL
Cp*IrCl (L-Serine) [1 (L-ser)]	>250					>250	M. chelonae MIC (M. chelonae): Inactive
Cp*IrCl (L-Trans-4-Hydroxyproline) [1 (L-hyp)]	>250					>250	
Cp*IrCl (L-Valine) [1 (L-val)]	17	>250	61	31	>250	>250	M. chelonae MIC (M. chelonae): 7.5 µg/mL; Minimal Inhibitory Concentration (MIC) M. bovis [3]: 31 µg/mL; M. smegmatis MIC (M. smegmatis; Iridium piano stool complexes): 3.9 µg/mL; M. abscessus MIC (M. abscessus; Iridium piano stool complexes): 7.5 µg/mL
Cp*IrCl (N-methyl-Glycine) [1 (L-N-methylgly)]	>250					>250	
Napthalenediamine [reference compound]							activity against MRSA when used alone (MRSA): active
[Ir(COD)(N,N-dimethylethylenediamine)]Cl [3 (N,N-methyl en)]	>250	>250	>250	>250	>250	>250	Minimal Inhibitory Concentration (MIC) M. bovis [3]: >250 µg/mL; MIC (gram positive MRSA): >250 µg/mL
[Ir(COD)(N-methylethylenediamine)]Cl [3 (N-methyl en)]	>250	>250	>250	>250	>250	>250	Minimal Inhibitory Concentration (MIC) M. bovis [3]: >250 µg/mL; MIC (gram positive MRSA): 16.2 µg/mL
[Ir(COD)(ethambutol)]Cl [3 (EMB)]	61	>250	61	61	>250	>250	MIC (gram positive MRSA; gram positive MRSA): 8.1 µg/mL
[Ir(COD)(ethylenediamine)]Cl [3 (en)]	125	>251	61	61	61	>250	MIC (gram positive MRSA; gram positive MRSA): 8.1 µg/mL
palladium(II) bis-valine [Pd(Val)2]							MIC [1]: 9.0 µg/mL
